The text below walks through data of patent US10357036B2, “Compounds for controlling arthropods” (priority 2015, dated 2019).

Where “and” joins values, the source holds several entries; their conditions need not be identical. Identical values can stand only once.

The test system of one test is Phaedon cochleariae. Kind of test: Phaedon cochleariae spray test. The following applies: 100 g/ha; after 7 days.
Another test relates to Boophilus microplus. Kind of test: Boophilus microplus injection test. Type of test: in vivo. The following applies: 20 μg/animal; assessed after 7 days. Here is the method: (§1) • Solvent: dimethyl sulfoxide
1 μl of the active ingredient solution is injected into the abdomen of 5 engorged adult female cattle ticks (Boophilus microplus). The animals are transferred into dishes and kept in a climate-controlled room.

Another test has as its system Spodoptera frugiperda. Kind of test: Spodoptera frugiperda spray test. Type of test: in vivo. The following applies: 100 g/ha; after 7 days.
The subject of test [1] is Ctenocephalides felis. As to the kind of experiment: Ctenocephalides felis oral test. Type of test: in vivo. The following applies: 100 ppm in citrated cattle blood; after 2 days. The method, then: • Solvent: Dimethyl Sulfoxide
To produce a suitable active ingredient formulation, 10 mg of active ingredient are mixed with 0.5 ml of dimethyl sulfoxide. Dilution with citrated cattle blood gives the desired concentration.
About 20 unfed adult cat fleas (Ctenocephalides fells) are placed into a chamber which is closed at the top and bottom with gauze. A metal cylinder whose bottom end is closed with parafilm is placed onto the chamber. The cylinder contains the blood/active ingredient formulation, which can be imbibed by the fleas through the parafilm membrane.

The subject of another test is Rhipicephalus sanguineus. Kind of test: Rhipicephalus sanguineus in vitro contact test with adult brown dog ticks. Type of test: in vivo. The settings on record: application rate 5 μg/cm^2 (=500 g/ha); after 48 h; dead or moribund ticks. The method, then:
(§2) For the coating of the test tubes, 9 mg of active ingredient are first dissolved in 1 ml of acetone p.a. and then diluted to the desired concentration with acetone p.a. 250 μl of the solution are distributed homogeneously on the inner walls and the base of a 25 ml glass tube by turning and rocking on an orbital shaker (rocking rotation at 30 rpm for 2 h). With 900 ppm of active ingredient solution and internal surface area 44.7 cm^2, given homogeneous distribution, an area-based dose of 5 μg/cm^2 is achieved.
After the solvent has evaporated off, the tubes are populated with 5-10 adult dog ticks (Rhipicephalus sanguineus), sealed with a perforated plastic lid and incubated in a horizontal position in the dark at room temperature and ambient humidity. After 48 h, efficacy is determined. To this end, the ticks are knocked to the base of the tube and incubated on a hotplate at 45-50° C. for not more than 5 min. Ticks which remain motionless on the base or move in such an uncoordinated manner that they are unable to deliberately avoid the heat by climbing upwards are considered to be dead or moribund.
An efficacy of 100% means that all the ticks were dead or moribund. 0% efficacy means that none of the ticks were harmed.

The next test has as its system Tetranychus urticae. As to the kind of experiment: Tetranychus urticae spray test, OP-resistant (bean leaf discs). Type of test: in vivo. The following applies: 100 g/ha; after 6 days. Here is the method:
After 6 days, the efficacy in % is determined.

Another test relates to Musca domestica. As to the kind of experiment: Musca domestica test. Type of test: in vivo. The settings on record: 100 ppm; adult houseflies; after 2 days. Here is the method: as §1
To produce a suitable active ingredient formulation, 10 mg of active ingredient are mixed with 0.5 ml of dimethyl sulfoxide, and the concentrate is diluted with water to the desired concentration.
Vessels containing a sponge treated with sugar solution and the active ingredient formulation of the desired concentration are populated with 10 adult houseflies (Musca domestica).

The test system of test [2] is Ctenocephalides felis. As to the kind of experiment: Ctenocephalides felis in vitro contact test with adult cat fleas. The following applies: application rate 5 μg/cm^2 (=500 g/ha); after 48 h; dead or moribund fleas. Type of test: in vivo. Here is the method: as §2
After the solvent has evaporated off, the tubes are populated with 5-10 adult cat fleas (Ctenocephalides felis), sealed with a perforated plastic lid and incubated in a horizontal position at room temperature and ambient humidity. After 48 h, efficacy is determined. To this end, the tubes are stood upright and the fleas are knocked to the base of the tube. Fleas which remain motionless at the base or move in an uncoordinated manner are considered to be dead or moribund.
100% efficacy means that all the fleas were dead or moribund. 0% efficacy means that no fleas were harmed.

`Cc1cc(C(F)(C(F)(F)F)C(F)(F)F)cc(C)c1-n1cc(-c2ccc(F)c(CNC(=O)C3CC3)c2)cn1` [Ia-04]: the efficacy in the test with Phaedon cochleariae, in the test on Spodoptera frugiperda, in the test on Rhipicephalus sanguineus and in the test with Tetranychus urticae was 100% in each case. For the same molecule, the “efficacy (laying of fertile eggs)” value in the test on Boophilus microplus stood at 100%. Also, the “efficacy (rate of extermination)” value in the test with Ctenocephalides felis [1] and in the test with Musca domestica was 100% in each case.
Regarding `CSc1cc(C(F)(C(F)(F)F)C(F)(F)F)cc(Cl)c1-n1cc(-c2ccc(F)c(CNC(C)=O)c2)cn1` [Ia-07], the efficacy in the test with Phaedon cochleariae is on record as 100%; in the test on Spodoptera frugiperda, 83%; in the test on Tetranychus urticae, 100%; in the test with Ctenocephalides felis [2], 100%. The “efficacy (laying of fertile eggs)” value in the test with Boophilus microplus is given as 100%. Further, the “efficacy (rate of extermination)” value in the test on Ctenocephalides felis [1] and with Musca domestica was 100% throughout.
As for `O=C(CC(F)(F)F)NCc1cc(-c2cnn(-c3c(Cl)cc(C(F)(C(F)(F)F)C(F)(F)F)cc3OC(F)(F)F)c2)ccc1F` [Ia-19], the efficacy in the test with Phaedon cochleariae came to 100%; with Spodoptera frugiperda, 100%; in the test on Rhipicephalus sanguineus it was 100%; in the test with Tetranychus urticae, 90%. For the same molecule, the “efficacy (laying of fertile eggs)” value with Boophilus microplus amounted to 100%. For the same molecule, the “efficacy (rate of extermination)” value in the test on Ctenocephalides felis [1] and in the test with Musca domestica was 100% each time.
As to `CCC(=O)NCc1cc(-c2cnn(-c3c(Cl)cc(C(F)(C(F)(F)F)C(F)(F)F)cc3OC(F)(F)F)c2)ccc1F` [Ia-26], the efficacy came out at 100% with Phaedon cochleariae, 100% in the test on Spodoptera frugiperda, 80% in the test on Rhipicephalus sanguineus and 90% in the test on Tetranychus urticae. Further, the “efficacy (laying of fertile eggs)” value with Boophilus microplus amounted to 100%. In addition, the “efficacy (rate of extermination)” value with Ctenocephalides felis [1] and in the test on Musca domestica was 100% in each case.
With `CCC(=O)NCc1cc(-c2cnn(-c3c(Cl)cc(C(F)(C(F)(F)F)C(F)(F)F)cc3C(F)(F)F)c2)ccc1Cl` [Ia-29], the efficacy in the test with Phaedon cochleariae, in the test with Spodoptera frugiperda and with Rhipicephalus sanguineus was 100% throughout. Besides, in the test on Boophilus microplus, the “efficacy (laying of fertile eggs)” value was determined as 100%. Further, the “efficacy (rate of extermination)” value in the test with Ctenocephalides felis [1] and in the test with Musca domestica was 100% in each case.
Take `CC(=O)NCc1cccc(-c2cnn(-c3c(Cl)cc(C(F)(C(F)(F)F)C(F)(F)F)cc3OC(F)(F)F)c2)c1` [Ia-38]: the efficacy worked out at 100% in the test with Phaedon cochleariae, 100% in the test on Spodoptera frugiperda and 80% in the test on Rhipicephalus sanguineus. For the same molecule, the “efficacy (laying of fertile eggs)” value in the test with Boophilus microplus is on record as 100%. In addition, the “efficacy (rate of extermination)” value with Ctenocephalides felis [1] and in the test on Musca domestica was 100% in each case.
Consider `O=C(NCc1cc(-c2cnn(-c3c(Cl)cc(C(F)(C(F)(F)F)C(F)(F)F)cc3OC(F)(F)F)c2)ccc1F)C1CC1` [Ia-40], for which the efficacy in the test with Phaedon cochleariae came out at 100%; in the test with Spodoptera frugiperda it was 100%; in the test on Rhipicephalus sanguineus, 80%. In addition, the “efficacy (laying of fertile eggs)” value with Boophilus microplus was determined as 100%. Further, the “efficacy (rate of extermination)” value in the test on Ctenocephalides felis [1] and with Musca domestica was 100% in each case.
Take `CC(C)C(=O)NCc1cc(-c2cnn(-c3c(Cl)cc(C(F)(C(F)(F)F)C(F)(F)F)cc3C(F)F)c2)ccc1F` [Ia-60]: the efficacy in the test on Phaedon cochleariae, with Spodoptera frugiperda, in the test with Tetranychus urticae and with Ctenocephalides felis [2] was 100% in each case. Also, in the test with Boophilus microplus, the “efficacy (laying of fertile eggs)” value stood at 100%. In addition, the “efficacy (rate of extermination)” value in the test with Ctenocephalides felis [1] and in the test on Musca domestica was 100% throughout.
For the molecule `CC(=O)N(C)Cc1cc(-c2cnn(-c3c(Cl)cc(C(F)(C(F)(F)F)C(F)(F)F)cc3Cl)c2)ccc1F` [Ia-64], the efficacy in the test on Phaedon cochleariae, in the test with Spodoptera frugiperda, in the test with Tetranychus urticae and with Ctenocephalides felis [2] was 100% in each case. In the test on Boophilus microplus, the “efficacy (laying of fertile eggs)” value is recorded as 100%. The “efficacy (rate of extermination)” value with Ctenocephalides felis [1] and with Musca domestica was 100% each time.
For `CC(=O)NCc1cccc(-c2cnn(-c3c(C)cc(C(F)(C(F)(F)F)C(F)(F)F)cc3Cl)c2)c1` [Ia-68], the efficacy turned out to be 100% with Phaedon cochleariae, 83% in the test with Spodoptera frugiperda, 80% in the test with Rhipicephalus sanguineus and 100% in the test with Tetranychus urticae. For the same molecule, the “efficacy (laying of fertile eggs)” value in the test with Boophilus microplus was 100%. The “efficacy (rate of extermination)” value with Ctenocephalides felis [1] and in the test on Musca domestica was 100% throughout.
In the case of `CCC(=O)N(C)Cc1cc(-c2cnn(-c3c(Cl)cc(C(F)(C(F)(F)F)C(F)(F)F)cc3Cl)c2)ccc1F` [Ia-71], the efficacy in the test with Phaedon cochleariae, in the test with Spodoptera frugiperda, with Tetranychus urticae and with Ctenocephalides felis [2] was 100% each time. Moreover, the “efficacy (laying of fertile eggs)” value with Boophilus microplus is reported as 100%. Besides, the “efficacy (rate of extermination)” value with Ctenocephalides felis [1] and in the test with Musca domestica was 100% each time.
With `CC(=O)N(C)Cc1cc(-c2cnn(-c3c(Cl)cc(C(F)(C(F)(F)F)C(F)(F)F)cc3Cl)c2)cnc1Cl` [Ia-73], the efficacy with Phaedon cochleariae is 100%; in the test on Spodoptera frugiperda it was 100%; with Tetranychus urticae it was 100% and 90%; in the test on Ctenocephalides felis [2], 100%. Moreover, the “efficacy (laying of fertile eggs)” value in the test with Boophilus microplus is 100%. Further, the “efficacy (rate of extermination)” value with Ctenocephalides felis [1] and in the test on Musca domestica was 100% in each case.
Turning to `CCOCN(Cc1cc(-c2cnn(-c3c(Cl)cc(C(F)(C(F)(F)F)C(F)(F)F)cc3Cl)c2)ccc1Cl)C(C)=O` [Ia-117], the efficacy with Phaedon cochleariae, with Spodoptera frugiperda and in the test on Ctenocephalides felis [2] was 100% in each case. In addition, in the test with Boophilus microplus, the “efficacy (laying of fertile eggs)” value was determined as 100%. The “efficacy (rate of extermination)” value with Ctenocephalides felis [1] and with Musca domestica was 100% in each case.
On to `CC(=O)NCc1cc(-c2cnn(-c3c(Cl)cc(C(F)(C(F)(F)F)C(F)(F)F)cc3OC(F)(F)F)c2)cnc1Cl` [Ia-131], for which the efficacy with Phaedon cochleariae, in the test with Spodoptera frugiperda and with Ctenocephalides felis [2] was 100% throughout. In addition, in the test on Boophilus microplus, the “efficacy (laying of fertile eggs)” value stood at 100%. In addition, the “efficacy (rate of extermination)” value in the test on Ctenocephalides felis [1] and in the test with Musca domestica was 100% throughout.
With `CCC(=O)NCc1cccc(-c2cnn(-c3c(Cl)cc(C(F)(C(F)(F)F)C(F)(F)F)cc3C(F)F)c2)c1F` [Ia-143], the efficacy is listed as 100% with Phaedon cochleariae, 100% in the test on Spodoptera frugiperda and 80% in the test with Rhipicephalus sanguineus. Moreover, in the test with Boophilus microplus, the “efficacy (laying of fertile eggs)” value came to 100%. The “efficacy (rate of extermination)” value in the test on Ctenocephalides felis [1] and with Musca domestica was 100% throughout.
Consider `CCC(=O)NCc1c(F)ccc(-c2cnn(-c3c(Cl)cc(C(F)(C(F)(F)F)C(F)(F)F)cc3C(F)(F)F)c2)c1F` [Ia-146], for which the efficacy in the test on Phaedon cochleariae, in the test with Spodoptera frugiperda and with Rhipicephalus sanguineus was 100% throughout. Moreover, the “efficacy (laying of fertile eggs)” value in the test with Boophilus microplus was 100%. Moreover, the “efficacy (rate of extermination)” value with Ctenocephalides felis [1] and with Musca domestica was 100% throughout.
Turning to `CCC(=O)NCc1c(F)ccc(-c2cnn(-c3c(Cl)cc(C(F)(C(F)(F)F)C(F)(F)F)cc3OC(F)F)c2)c1F` [Ia-157], the efficacy with Phaedon cochleariae turned out to be 100%; in the test with Spodoptera frugiperda it was 100%; in the test with Rhipicephalus sanguineus, 100%; in the test on Tetranychus urticae it was 90%. For the same molecule, the “efficacy (laying of fertile eggs)” value in the test with Boophilus microplus was found to be 100%. In addition, the “efficacy (rate of extermination)” value with Ctenocephalides felis [1] and with Musca domestica was 100% each time.
Take “N-(2-chloro-5-{1-[2,6-dichloro-4-(1,1,1,2,3,3,3-heptafluoropropan-2-yl)phenyl]-1H-pyrazol-4-yl}benzyl)-N-methylpropanamide [Ia-22]”: the efficacy turned out to be 100% with Phaedon cochleariae, 80% in the test on Rhipicephalus sanguineus and 90% with Tetranychus urticae. Further, the “efficacy (laying of fertile eggs)” value in the test with Boophilus microplus came to 100%. For the same molecule, in the test on Ctenocephalides felis [1], the “efficacy (rate of extermination)” value was found to be 100%.
